Experiments:
Format in all cases: cell-based, human
[1] = tested on: SKBR3 cells; assay: Polysome profiling and western blot of 60S fractions; details: TSA 1 μM, 2 h
Experimental: Since RPL24 depletion decreased the levels of three cap-dependently translated proteins, the impact of RPL24 knockdown on overall ribosome and polysome formation in these cells was evaluated. Polysome profiling, which utilizes continuous sucrose gradient fractionation to separate free 40S and 60S ribosomal subunits, 80S ribosomes, and polysomes (two or more ribosomes on one mRNA) was used. […] This observed increase in 40S and 60S subunits relative to 80S ribosomes implies a defect in 40S-60S joining induced by the RPL24 knockdown. Since eIF6 bound to the pre-60S subunit prevents joining of the 40S and 60S subunits and occurs adjacent to RPL24 on 60S (FIG. 3c), immunoblotting on all 60S-containing polysome fractions to evaluate the impact of RPL24 knockdown on eIF6 retention was performed. […] Associated with the observed 60S loss of RPL24 was a striking increase in 60S-associated eIF6 (FIG. 3d). To rule out the possibility that the observed 60S retention of eIF6 might be a false-positive or non-specific artifact of lentiviral expressed RPL24 shRNA, a functionally deficient truncation mutant of RPL24 that eliminates the last 17 amino acids was overexpressed. Polysome profiling of 293T cells expressing intact versus truncated RPL24 protein confirmed that truncated RPL24 can induce 60S retention of eIF6 (FIG. 8).
Polysome profiles to separate the 40S, 60S, 80S and polysomes are carried out by layering cell lysates over a continuous 10-50% sucrose gradient and spun at 38,000 rpm for 2 h as previously described. Fractions are collected using a Retriever 500 fraction collector with a UV (UA6) detector (ISCO Teledyne (Lincoln, Nebr.)).
FIG. 3: RPL24 knockdown reduces 80S and polysome assembly while increasing 60S retention of eIF6. […] (a) Western blots using the indicated antibodies were performed on total cell lysates to assess knockdown efficiency. (b) Lysates were applied to a continuous sucrose gradient (10-50%) and ultracentrifugation followed by fractionation was performed to separate ribosomal subunits and polysomes. […]

[2] = tested on: HER2 mRNA; assay: Northern blot of HER2 transcript levels; details: SKBR3 cells, TSA 1 μM, 6 h
Experimental: Previous studies have shown that pan-inhibitors of class I and II histone deacetylases, like TSA, can rapidly destabilize a number of oncogenic transcripts including HER2 in a cycloheximide-dependent manner (FIG. 9). […] Thus, SKBR3 cells were treated with TSA to evaluate polysome protein acetylation and determine if, similar to RPL24 depletion, histone deacetylase inhibition can affect ribosome assembly dynamics. To detect early (2 h) ribosome or polysome acetylation following histone deacetylase inhibition treatment (1 μM TSA), SKBR3 polysomes were isolated using a discontinuous sucrose gradient as previously described. […] Mass spectrometry studies indicate that 15 ribosomal proteins, 11 large subunit proteins (RPL24 included) and 4 small subunit proteins, underwent at least a two-fold induction in acetylation following 2 h or 6 h TSA treatment (1 μM) (FIG. 4b, FIG. 10a-q).
Cells are harvested and RNA is extracted using Trizol (Life Technologies) per manufacturer's protocol. Northern blots are performed as previously described. Briefly, RNA is then electrophoresed into 1% agarose-formaldehyde gels and transferred onto PVDF membranes. Membranes are then hybridized with ^32P-labelled cDNA probes for HER2 or GAPDH, washed, and visualized by autoradiography.
SKBR3 cells were treated with TSA (1 μM, 6 h) and/or cycloheximide (CX, 50 μg/ml, 6 h) or with the respective vehicle controls. […]

[3] = tested on: ribosomal proteins; assay: Mass spectrometry of acetylated ribosomal proteins in polysome pellets; details: SKBR3 cells, TSA 1 μM, 2 h or 6 h
Experimental: Previous studies have shown that pan-inhibitors of class I and II histone deacetylases, like TSA, can rapidly destabilize a number of oncogenic transcripts including HER2 in a cycloheximide-dependent manner (FIG. 9). […] Thus, SKBR3 cells were treated with TSA to evaluate polysome protein acetylation and determine if, similar to RPL24 depletion, histone deacetylase inhibition can affect ribosome assembly dynamics. To detect early (2 h) ribosome or polysome acetylation following histone deacetylase inhibition treatment (1 μM TSA), SKBR3 polysomes were isolated using a discontinuous sucrose gradient as previously described. […]
To prepare polysome samples for mass spectrometry, cells are treated with a histone deacetylase inhibitor and polysome pellets are prepared using a discontinuous sucrose gradient as described above. Protein concentration is determined using the Pierce BCA Protein Assay Kit (Thermo Scientific) and equal amount of protein are trypsin digested. […]
Three biological replicates of polysome or 60S samples are then analyzed by LC-MS/MS using a quadrupole time-of-flight (QqTOF) TripleTOF 5600 mass spectrometer (AB SCIEX, Dublin, Calif.) coupled to an Eksigent (Dublin, Calif.) nanoLC Ultra, 2D plus. […] Quantitative data analysis of acetyl-lysine peptides is performed by integration of selected molecular ion intensities using Skyline MS1 Filtering as previously described. […]

For CC(/C=C/C(=O)NO)=C\[C@@H](C)C(=O)c1ccc(N(C)C)cc1 [TSA, trichostatin-A], the “60S RPL24 levels” value [1] was “without reducing”, the “60S retention of eIF6” value [1] was “increasing” and the “80S and polysome assembly” value [1] was “reduced”. The “HER2 mRNA decay” value [2] was “TSA-induced HER2 mRNA decay” and the “number of ribosomal proteins with at least a two-fold induction in acetylation” value [3] was 15.

— US20150359794A1, “IMPAIRMENT OF THE LARGE RIBOSOMAL SUBUNIT PROTEIN RPL24 BY DEPLETION OR ACETYLATION” (Buck Institute for Research on Aging, priority 2014, published 2015)
